According to patent publication US20080287374A1, “BREAST CANCER-RESISTANT PROTEIN INHIBITOR” (KABUSHIKI KAISHA YAKULT HONSHA, priority 2003, published 2008):
Values after ≈ are worked out from the molar mass of the structure shown.

Tests used:
[1] = tested on: A549/SN-38-4 cell line; assay: Effect of flavonoid in overcoming anticancer drug (SN-38) resistance of A549/SN-38 cell line; type: cell-based, human; settings: Homo sapiens; concentration of flavonoid for 50% reduction of relative resistance value to SN-38; A549/SN-38-4, 48 hours
Method: The A549 cell line or the A549/SN-38-4 cell line was suspended in 10% FBS/Ham's F-12, and the resultant suspension was inoculated into a 96-well microplate, followed by culturing at 5% CO2 and 37° C. overnight (2×10^3 cells/50 μL/well). Thereafter, a solution of a flavonoid and SN-38 in 10% FBS/Ham's F-12 (25 μL) was added to each of the wells, followed by culturing at 5% CO2 and 37° C. for 48 hours. After completion of culturing, the number of viable cells was counted by use of TetraColor ONE according to the attached instruction manual.

[2] = tested on: P388/BCRP cell line; assay: Effect of flavonoid in overcoming anticancer drug resistance in vivo (survival of tumor-implanted mice); design: species or system mouse; settings: compound 100 mg/kg/day + CPT-11 20 mg/kg/day, intraperitoneally once a day, days 1 to 10; CDF1 mice
Method: Groups of six-week-old female CDF1 mice, each group consisting of 5 mice, were employed. The P388 cell line or the P388/BCRP cell line (1×10^6 cells) was implanted into the peritoneal cavity of each of the mice. […] Merely the solvent was administered to mice in the control group. In order to evaluate the antitumor effect of the flavonoid, survival rate T/C (%) was calculated from the survival days of the tumor-implanted mice by use of the following formula.
Survival rate T/C (%)=(the mean survival days of mice in the treated flavonoid group)÷(the mean survival days of mice in the control group)×100

[3] = tested on: MES-SA/Dx5 cell line; assay: Effect of flavonoid on multidrug (paclitaxel) resistance of MES-SA/Dx5 cell line; type: cell-based, human; settings: Homo sapiens; concentration of flavonoid for 50% reduction of relative resistance value to paclitaxel; MES-SA/Dx5 (P-glycoprotein overexpression), 48 hours; read-out: Resistance overcoming effect EC50
Method: Human uterine cancer MES-SA cell line or MES-SA/Dx5 cell line which had acquired multidrug resistance through overexpression of P-glycoprotein (Cancer Res. 45, 4091-4096 (1985)) was suspended in 10% FBS/DMEM, and the resultant suspension was inoculated into a 96-well microplate, followed by culturing at 5% CO2 and 37° C. overnight (3×10^3 cells/50 μL/well). Thereafter, a solution of a flavonoid and paclitaxel in 10% FBS/DMEM (25 μL) was added to each of the wells, followed by culturing at 5% CO2 and 37° C. for 48 hours. After completion of culturing, the number of viable cells was counted by use of TetraColor ONE according to the attached instruction manual.

[4] = tested on: A549/SN-38-4 cell line; assay: Anticancer drug sensitivity test, A549/SN-38-4; type: cell-based, human; settings: stated for the A549/SN-38 cell lines; FIG. 1 shows A549/SN-38-4
Method: Human non-small cell lung cancer A549 cell line was subcultured at 5% CO2 and 37° C. by use of a Ham's F-12 medium containing 10% FBS, 100 U/mL of penicillin, and 100 μg/mL of streptomycin (10% FBS/Ham's F-12). SN-38-resistant A549 cell lines were selected by subculturing the A549 cell line in a medium for two months while the concentration of SN-38 contained in the medium was increased in a stepwise manner (4 to 10 ng/mL). Subsequently, the resultant SN-38-resistant A549 cell lines were subjected to cloning by means of limiting dilution, to thereby establish six cloned SN-38-resistant A549 cell lines (A549/SN-38-1 to 6).
Thereafter, a solution of an anticancer drug in 10% FBS/Ham's F-12 (50 μL) was added to each of the wells, followed by culturing at 5% CO2 and 37° C. for 48 hours. After completion of culturing, the number of viable cells was counted by use of a viable cell counting reagent [TetraColor ONE (trade name), product of Seikagaku Corporation] according to the attached instruction manual. […] “Relative resistance value” is obtained by dividing the IC50 for an A549/SN-38 cell line by the IC50 for the A549 cell line. The greater the relative resistance value, the higher the level of acquired resistance.

[5] = tested on: A549/SN-38-4 cell line; assay: Amount of anticancer drug accumulated in A549/SN-38 cell line; type: cell-based, human; settings: both the A549 cell line and the A549/SN-38-4 cell line; SN-38 300 ng/mL, 60 minutes
Method: The A549 cell line or the A549/SN-38-4 cell line (4×10^6 cells/mL) was suspended in 10% FBS/RPMI1640 (1 mL), and an SN-38 DMSO solution (1 μL, final concentration: 300 ng/mL) was added to the resultant suspension, followed by incubation at 37° C. for 60 minutes. Thereafter, centrifugation was performed (2° C., 1,400×g, 1 min), and the resultant supernatant was removed. Ice-cooled PBS was added to the thus-precipitated cells, and the cells were resuspended therein, followed by centrifugation (2° C., 1,400×g, 1 min) for washing of the cells. This washing procedure was performed again, followed by addition of PBS (375 μL) and sonication of the cells. To the resultant destructed cells, methanol (375 μL) and 10% zinc sulfate solution (15 μL) were added, and the resultant mixture was stirred, followed by centrifugation (2° C., 12,500×g, 5 min) and collection of the supernatant. The thus-collected supernatant was dispensed in a white 96-well microplate for fluorescence intensity measurement (200 μL/well), and then the amounts of SN-38 and an SN-38-glucuronide contained in the supernatant were measured by use of a microplate fluorometer [SPECTRA max GEMINI XS (trade name), product of Molecular Devices] […]

Row | Compound | EC50 [1] | Survival days Mean ± S.D. [2] | Survival rate T/C [2] | EC50 [3] | Resistance of the A549/SN-38 cell lines to the drug (in words) [4] | SN-38-glucuronide detected in cells [5]
1 | COc1ccc(/C=C/C(=O)c2ccc(O)cc2O)cc1OC [Compound 3-5, 2′,4′-Dihydroxy-3,4-dimethoxychalcone] | 0.04 µg/mL (≈ 0.133 µM) | 18.4 ± 0.5 days | 153% | > 1 µg/mL | – | –
2 | COc1ccc2c(=O)cc(-c3ccc(OC)c(OC)c3)oc2c1 [Compound 1-14, 3′,4′,7-Trimethoxyflavone] | 0.0078 µg/mL (≈ 0.025 µM) | 18.4 ± 4.5 days | 153% | > 1 µg/mL | – | –
3 | O=C1c2c(O)ccc(O)c2C(=O)c2c(NCCNCCO)ccc(NCCNCCO)c21 [mitoxantrone] | – | – | – | – | particularly strong resistance | –
4 | CCc1c2c(nc3ccc(O)cc13)-c1cc3c(c(=O)n1C2)COC(=O)[C@]3(O)CC [SN-38] | – | – | – | – | particularly strong resistance | –
5 | COc1cc2oc(-c3ccccc3)cc(=O)c2cc1OC [Compound 1-15, 6,7-Dimethoxyflavone] | 0.16 µg/mL (≈ 0.567 µM) | 18.2 ± 3.9 days | 152% | > 1 µg/mL | – | –
6 | CCc1c2c(nc3ccc(O[C@@H]4O[C@H](C(=O)O)[C@@H](O)[C@H](O)[C@H]4O)cc13)-c1cc3c(c(=O)n1C2)COC(=O)[C@]3(O)CC [SN-38-glucuronide] | – | – | – | – | – | virtually no SN-38-glucuronide was detected
